{"source": "patent US11339177B2", "about": "“Heteroaryl compounds as inhibitors of necrosis, composition and method using the same” (ACCRO BIOSCIENCE INC., priority 2017, dated 2022)", "note": "pIC50: −log10 of the molar value.", "data": [{"test_system": "HT29 cells", "experiment": "Necroptosis assay in HT29 cells (TNF-α, Smac mimetic, z-VAD; cell viability)", "assay_type": "cell-based", "details": "Homo sapiens, HT-29; TNF-α (40 ng/mL), Smacmimetic (100 nM), z-VAD (20 μM), 48 hours", "procedure": "Human colon cancer HT29 cells were used in a necroptosis assay. For this assay, HT29 cells were added to 96-well plates and then were pre-treated with 10 μM of the test compound for one hour. Then the cells were treated with TNF-α (40 ng/mL), Smacmimetic (100 nM) and z-VAD (20 μM) for 48 hours, and the viability of cells was quantified. DMSO pretreatment group was used as negative controls, Nec-1 pretreatment group was used as positive controls.\nIn Table 2, (1) “ND” indicates “not detected;” (2) Explanation for inhibition %: Taking Compound B14 as an example, its inhibition % was 30% (50 nM). It means that the when Compound B14 at a concentration of 50 nM was used in the HT29 Cell Assay, the necrosis of cells were inhibited at 30%.", "values": [{"molecule": "Nc1nc2ccc(-c3cnc4c(c3)N(C(=O)OC3CCCCC3)CCO4)cc2s1", "note": "[Compound B1]", "pIC50": 7.96}, {"molecule": "CC(=O)Nc1nc2ccc(-c3cnc4c(c3)N(C(=O)OC3CCCCC3)CCO4)cc2s1", "note": "[Compound B2, Cyclohexyl-7-(2-acetamidobenzo[d]thiazol-6-yl)-2,3-dihydro-1H-pyrido[2,3-b][1,4]oxazine-1-carboxylate]", "pIC50": 8.70}, {"molecule": "Nc1nc2cc(-c3cnc4c(c3)N(C(=O)OC3CCCCC3)CCO4)ccn2n1", "note": "[Compound B4]", "pIC50": 7.05}, {"molecule": "CC(=O)Nc1nc2cc(-c3cnc4c(c3)N(C(=O)OC3CCCCC3)CCO4)ccn2n1", "note": "[Compound B5]", "pIC50": 7.38}, {"molecule": "Nc1nc2ccc(-c3cnc4c(c3)N(C(=O)OC3CCCCC3)CCO4)cn2n1", "note": "[Compound B6]", "pIC50": 7.05}, {"molecule": "CC(C)(C)OC(=O)Nc1cn2cc(-c3cnc4c(c3)N(C(=O)OC3CCCCC3)CCO4)ccc2n1", "note": "[Compound B10]", "pIC50": 8.30}, {"molecule": "CC(=O)Nc1cn2nc(-c3cnc4c(c3)N(C(=O)OC3CCCCC3)CCO4)ccc2n1", "note": "[Compound B12]", "pIC50": 7.96}, {"molecule": "CC(C)(C)OC(=O)Nc1nc2ccc(-c3cnc4c(c3)N(C(=O)OC3CCOCC3)CCO4)cc2s1", "note": "[Compound B17, tetrahydro-2H-pyran-4-yl-7-(2-((tert-butoxycarbonyl)amino)benzo[d]thiazol-6-yl)-2,3-dihydro-1H-pyrido[2,3-b][1,4]oxazine-1-carboxylate]", "pIC50": 7.59}, {"molecule": "CC(=O)Nc1nc2ccc(-c3cnc4c(c3)N(C(=O)OC3CCCCCC3)CCO4)cc2s1", "note": "[Compound B26]", "pIC50": 8.49}, {"molecule": "CC(=O)Nc1nc2ccc(-c3cnc4c(c3)N(C(=O)OC3COCCOC3)CCO4)cc2s1", "note": "[Compound B27]", "pIC50": 6.88}, {"molecule": "CC(=O)Nc1nc2ccc(-c3cnc4c(c3)N(C(=O)NC3CCCCC3)CCO4)cc2s1", "note": "[Compound B28]", "pIC50": 7.41}, {"molecule": "CC(=O)Nc1nc2ccc(-c3cnc4c(c3)N(C(=O)CC3CCCCC3)CCO4)cc2s1", "note": "[Compound B29]", "pIC50": 7.57}, {"molecule": "CC(=O)Nc1nc2ccc(-c3cnc4c(c3)N(C(=O)CC(C)(C)C)CCO4)cc2s1", "note": "[Compound B30]", "pIC50": 6.73}, {"molecule": "CC(=O)Nc1nc2ccc(-c3cnc4c(c3)N(C(=O)OC3CCCCC3)CCO4)nc2s1", "note": "[Compound B31]", "pIC50": 8.07}, {"molecule": "O=C(Nc1nc2ccc(-c3cnc4c(c3)N(C(=O)OC3CCCCC3)CCO4)nc2s1)C1CC1", "note": "[Compound B32]", "pIC50": 9.05}, {"molecule": "O=C1CCn2c(nc3ccc(-c4cnc5c(c4)N(C(=O)OC4CCCCC4)CCO5)cc32)N1", "note": "[Compound B33, Cyclohexyl7-(2-oxo-1,2,3,4-tetrahydrobenzo[4,5]imidazo[1,2-a]pyrimidin-7-yl)-2,3-dihydro-1H-pyrido[2,3-b][1,4]oxazine-1-carboxylate]", "pIC50": 7.82}, {"molecule": "O=C1Cn2c(nc3ccc(-c4cnc5c(c4)N(C(=O)OC4CCCCC4)CCO5)cc32)N1", "note": "[Compound B34]", "pIC50": 5.64}, {"molecule": "CC(=O)Nc1nc2ccc(-c3cnc4c(c3)N(C(=O)CC3CCOCC3)CCO4)cc2s1", "note": "[Compound B36]", "pIC50": 6.28}, {"molecule": "CC(=O)Nc1nc2ccc(-c3cnc4c(c3)N(C(=O)OC3CCCCC3)CC(=O)N4)cc2s1", "note": "[Compound B39, Cyclohexyl-7-(2-acetamidobenzo[d]thiazol-6-yl)-3-oxo-3,4-dihydropyrido[2,3-b]pyrazine-1(2H)-carboxylate]", "pIC50": 5.57}, {"molecule": "CC(=O)Nc1nc2ccc(-c3cnc4c(c3)N(C(=O)OC3CCCCC3)CCN4)cc2s1", "note": "[Compound B40, Cyclohexyl-7-(2-acetamidobenzo[d]thiazol-6-yl)-3,4-dihydropyrido[2,3-b]pyrazine-1(2H)-carboxylate]", "pIC50": 7.62}, {"molecule": "CC(=O)Nc1nc2ccc(-c3cnc4c(c3)N(C(=O)OC3CCOCC3)CCN4)cc2s1", "note": "[Compound B41]", "pIC50": 6.96}, {"molecule": "O=C(Nc1nc2ccc(-c3cnc4c(c3)N(C(=O)OC3CCOCC3)CCN4)cc2s1)C1CC1", "note": "[Compound B42]", "pIC50": 7.42}, {"molecule": "CC(=O)Nc1nc2ccc(-c3cnc4c(c3)N(C(=O)OC3CCCCC3)CCN4C)cc2s1", "note": "[Compound B43, cyclohexyl7-(2-acetamidobenzo[d]thiazol-6-yl)-4-methyl-3,4-dihydropyrido[2,3-b]pyrazine-1(2H)-carboxylate]", "pIC50": 7.89}, {"molecule": "CC(=O)Nc1nc2ccc(-c3cnc4c(c3)N(C(=O)OC3CCOCC3)CCN4C)cc2s1", "note": "[Compound B44]", "pIC50": 7.02}, {"molecule": "CN1CCN(C(=O)OC2CCOCC2)c2cc(-c3ccc4nc(NC(=O)C5CC5)sc4c3)cnc21", "note": "[Compound B45]", "pIC50": 7.74}, {"molecule": "CCN1CCN(C(=O)OC2CCCCC2)c2cc(-c3ccc4nc(NC(C)=O)sc4c3)cnc21", "note": "[Compound B46]", "pIC50": 7.15}, {"molecule": "CC(=O)Nc1nc2ccc(-c3cnc4c(c3)N(C(=O)OC3CCCCC3)CCN4C3CC3)cc2s1", "note": "[Compound B47]", "pIC50": 6.80}, {"molecule": "CC(=O)Nc1nc2ccc(-c3cnc4c(c3)N(C(=O)OC3CCCCC3)CCC4)cc2s1", "note": "[Compound B48, cyclohexyl-7-(2-acetamidobenzo[d]thiazol-6-yl)-3,4-dihydro-1,5-naphthyridine-1(2H)-carboxylate]", "pIC50": 8.62}, {"molecule": "CC(=O)Nc1nc2ccc(-c3cnc4c(c3)N(C(=O)OC3CCOCC3)CCC4)cc2s1", "note": "[Compound B49]", "pIC50": 7.94}, {"molecule": "O=C(Nc1nc2ccc(-c3cnc4c(c3)N(C(=O)OC3CCOCC3)CCC4)cc2s1)C1CC1", "note": "[Compound B50, tetrahydro-2H-pyran-4-yl-7-(2-(cyclopropanecarboxamido)benzo[d]thiazol-6-yl)-3,4-dihydro-1,5-naphthyridine-1(2H)-carboxylate]", "pIC50": 8.82}, {"molecule": "O=C(Nc1nc2ccc(-c3cnc4c(c3)N(C(=O)OC3CCOCC3)CCC4)nc2s1)C1CC1", "note": "[Compound B51]", "pIC50": 8.14}, {"molecule": "CC(=O)Nc1nc2ccc(-c3cnc4c(c3)N(C(=O)OC3CCCCC3)CC4)cc2s1", "note": "[Compound B52]", "pIC50": 8.30}, {"molecule": "CC(=O)Nc1nc2ccc(-c3cnc4c(c3)N(C(=O)OC3CCOCC3)CC4)cc2s1", "note": "[Compound B53, tetrahydro-2H-pyran-4-yl6-(2-acetamidobenzo[d]thiazol-6-yl)-2,3-dihydro-1H-pyrrolo[3,2-b]pyridine-1-carboxylate]", "pIC50": 8.33}, {"molecule": "O=C(Nc1nc2ccc(-c3cnc4c(c3)N(C(=O)OC3CCOCC3)CC4)cc2s1)C1CC1", "note": "[Compound B54]", "pIC50": 8.70}, {"molecule": "CC(=O)Nc1cn2cc(-c3cnc4c(c3)N(C(=O)OC3CCOCC3)CC4)ccc2n1", "note": "[Compound B55]", "pIC50": 7.31}, {"molecule": "O=C(Nc1cn2cc(-c3cnc4c(c3)N(C(=O)OC3CCOCC3)CC4)ccc2n1)C1CC1", "note": "[Compound B56]", "pIC50": 8.34}, {"molecule": "O=C(Nc1cn2nc(-c3cnc4c(c3)N(C(=O)OC3CCOCC3)CC4)ccc2n1)C1CC1", "note": "[Compound B58]", "pIC50": 7.77}, {"molecule": "O=C(Nc1nc2ccc(-c3cnc4c(c3)N(C(=O)OC3CCOCC3)CC4)nc2s1)C1CC1", "note": "[Compound B59, tetrahydro-2H-pyran-4-yl6-(2-(cyclopropanecarboxamido)thiazolo[5,4-b]pyridin-5-yl)-2,3-dihydro-1H-pyrrolo[3,2-b]pyridine-1-carboxylate]", "pIC50": 8.15}, {"molecule": "CC(=O)Nc1nc2ccc(-c3cnc4c(c3)N(C(=O)CC3CCOCC3)CC4)cc2s1", "note": "[Compound B61]", "pIC50": 7.41}, {"molecule": "O=C(Nc1nc2ccc(-c3cnc4c(c3)N(C(=O)CC3CCOCC3)CC4)cc2s1)C1CC1", "note": "[Compound B62, N-(6-(1-(2-(tetrahydro-2H-pyran-4-yl)acetyl)-2,3-dihydro-1H-pyrrolo[3,2-b]pyridin-6-yl)benzo[d]thiazol-2-yl)cyclopropanecarboxamide]", "pIC50": 8.72}, {"molecule": "O=C(Nc1cn2cc(-c3cnc4c(c3)N(C(=O)CC3CCOCC3)CC4)ccc2n1)C1CC1", "note": "[Compound B64]", "pIC50": 7.28}, {"molecule": "O=C(Nc1nc2ccc(-c3cnc4c(c3)N(C(=O)OC3CCNCC3)CC4)cc2s1)C1CC1", "note": "[Compound B67, Piperidin-4-yl-6-(2-(cyclopropanecarboxamido)benzo[d]thiazol-6-yl)-2,3-dihydro-1H-pyrrolo[3,2-b]pyridine-1-carboxylate]", "pIC50": 6.52}, {"molecule": "CNC(=O)Nc1nc2ccc(-c3cnc4c(c3)N(C(=O)OC3CCOCC3)CC4)nc2s1", "note": "[Compound B71]", "pIC50": 7.48}, {"molecule": "CNC(=O)Nc1cn2cc(-c3cnc4c(c3)N(C(=O)OC3CCOCC3)CC4)ccc2n1", "note": "[Compound B72]", "pIC50": 7.32}, {"molecule": "CNC(=O)Nc1nc2ccc(-c3cnc4c(c3)N(C(=O)OCC3CC3)CC4)cc2s1", "note": "[Compound B73]", "pIC50": 8.74}, {"molecule": "CNC(=O)Nc1nc2ccc(-c3cnc4c(c3)N(C(=O)OCC3CC3)CC4)nc2s1", "note": "[Compound B74]", "pIC50": 7.64}, {"molecule": "CNC(=O)Nc1cn2cc(-c3cnc4c(c3)N(C(=O)OCC3CC3)CC4)ccc2n1", "note": "[Compound B75]", "pIC50": 7.72}, {"molecule": "O=C(Nc1nc2ccc(-c3cnc4c(c3)N(C(=O)OCC3CC3)CC4)nc2s1)C1CC1", "note": "[Compound B76]", "pIC50": 8.62}, {"molecule": "O=C(Nc1cn2cc(-c3cnc4c(c3)N(C(=O)OCC3CC3)CC4)ccc2n1)C1CC1", "note": "[Compound B77]", "pIC50": 8.77}, {"molecule": "O=C(Nc1nc2ccc(-c3cnc4c(c3)N(C(=O)OC3COC3)CC4)cc2s1)C1CC1", "note": "[Compound B78, Oxetan-3-yl-6-(2-(cyclopropanecarboxamido)benzo[d]thiazol-6-yl)-2,3-dihydro-1H-pyrrolo[3,2-b]pyridine-1-carboxylate]", "pIC50": 8.17}, {"molecule": "CNCC(C)OC(=O)N1CCc2ncc(-c3ccc4nc(NC(=O)C5CC5)sc4c3)cc21", "note": "(centres unmarked) [Compound B79]", "pIC50": 7.80}, {"molecule": "CC(=O)Nc1ccc2cc(-c3cnc4c(c3)N(C(=O)OC3CCCCC3)CCO4)ccc2n1", "note": "[Compound B80, Cyclohexyl7-(2-acetamidoquinolin-6-yl)-2,3-dihydro-1H-pyrido[2,3-b][1,4]oxazine-1-carboxylate]", "pIC50": 6.00}]}, {"test_system": "L929 cells", "experiment": "Necroptosis assay in L929 cells (TNF-α, z-VAD; cell viability by ATP levels)", "assay_type": "cell-based", "details": "Mus musculus, TNF-α (40 ng/mL), z-VAD (20 μM), 48 hours", "procedure": "[…] Then the cells were treated with TNF-α (40 ng/mL) and z-VAD (20 μM) for 48 hours, and the viability of cells was quantified by detecting adenosine triphosphate (ATP) levels. DMSO pretreatment group was used as negative controls, Nec-1 pretreatment group was used as positive controls.", "values": [{"molecule": "Nc1nc2ccc(-c3cnc4c(c3)N(C(=O)OC3CCCCC3)CCO4)cc2s1", "note": "[Compound B1]", "pIC50": 8.44}]}]}
